Measurements as given in patent publication US20140302009A1, “Medicinal Agent for Prevention or Treatment of Diseases Associated with Intraocular Neovascularization and/or Intraocular Vascular Hyperpermeability” (Sanwa Kagaku Kenkyusho Co., Ltd., priority 2011, published 2014).

Legend:
[1] = test system: choroidal neovascularization (CNV); assay: Mouse model of choroidal neovascularization (CNV) induced by laser irradiation; CNV volume at 7 days; type: in vivo; conditions: 7 days after laser irradiation; for CNV suppression rate: based on non-treated group
Description: In the CNV model, macrophages migrate by the initiation of an inflammation by laser irradiation, and as a result thereof, VEGF is produced, neovascular vessels are generated, and increased vascular permeability is observed.
The both eyes of a male C57BL/6J mice having a body weight of about 20 g (6-week old) were irradiated with laser (irradiated by 4 to 6 spots per one eye) to experimentally induce CNV. As mentioned below, the drugs were administered by an anti-VEGF antibody alone and ranirestat alone, respectively, or by a combination of the two drugs. […] As the anti-VEGF antibody, a mouse anti-VEGF antibody purchased from R&D Systems was used. The number of examples was five per a group, and the following four groups were set.
(a) Untreated group (b) 3 mg/kg ranirestat-administered group: 3 mg/kg of ranirestat was forcibly and orally administered once a day (3 mg/kg/day) (c) Anti-VEGF antibody-administered group: ing of an anti-VEGF antibody was administered by intravitreal injection (d) Combination use group: ing of an anti-VEGF antibody was administered by intravitreal injection+ranirestat was administered (3 mg/kg was forcibly and orally administered once a day (3 mg/kg/day))
Ranirestat was administered from the days of the laser irradiation (20 to 30 minutes after the irradiation) to 7 days after the irradiation. The anti-VEGF antibody was administered by intravitreal injection immediately after the laser irradiation. After completion of the laser irradiation, the mice were bred by general breeding for 7 days, and thereafter the eye balls were excised and the volume of CNV appeared in the choroid was measured. The induction and evaluation of CNV were conducted by the following procedures.
Each mouse was anesthetized by administering 0.30 mL of tribromoethanol to the abdominal cavity of the mouse, and a mydriatics and a local anesthesia were placed a drop of the eyes. Thereafter the both eyes of the mouse were irradiated with laser (wavelength: 532 nm, output: 200 mW, irradiation time: 100 ms, spot size: 100 μm) by 4 to 6 spots per one eye using a laser photocoagulation device (Lumenis). CNV appeared by the laser irradiation, and thereafter the CNV volume increased.
At 7 days after the laser irradiation, each mouse was euthanized under tribromoethanol anesthesia, and the left and right eye balls of the mouse were excised. […] The volume of CNV was measured by importing an image in the vicinity of CNV by a confocal laser microscope (Zeiss LSM5 Pascal) and using image analysis software (NIH Image J). […]
Ranirestat was administered from the day of the laser irradiation (20 to 30 minutes after the irradiation) to seven days after the irradiation. […] The CNV volume was measured in a similar manner to Experiment 1.

[2] = injected into the vitreous body of a human; package insert of ranibizumab; cited from earlier work

Row | Molecule | CNV suppression rate ([1]; Experiment 1, male C57BL/6J mice, ranirestat 3 mg/kg/day oral, anti-VEGF antibody by intravitreal injection) | effect of suppressing the CNV volume as compared to the non-treated group ([1]; Experiment 1, ranirestat 3 mg/kg/day oral, anti-VEGF antibody intravitreal) | CNV suppression rate ([1]; Experiment 2, ranirestat 10 mg/kg/day oral, anti-VEGF antibody 1 ng by intravitreal injection) | effect of suppressing the CNV volume as compared to the non-treated group ([1]; Experiment 2, ranirestat 10 mg/kg/day oral, anti-VEGF antibody 1 ng intravitreal) | elimination half-life [2]
1 | O=C1C[C@@]2(C(=O)N1)C(=O)N(Cc1ccc(Br)cc1F)C(=O)c1cccn12 [ranirestat, (3R)-2′-(4-bromo-2-fluorobenzyl)spiro[pyrrolidine-3,4′(1′H)pyrrolo[1,2-a]pyrazine]-1′,2,3′,5(2′H)-tetrone] | 18.3% | an effect of suppressing the CNV volume was observed but there was no significant difference | 39.3% | a significant effect of suppressing the CNV volume was observed | 
2 | ranibizumab: typical anti-VEGF agent, used as intravitreal injection |  |  |  |  | 220 h
